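How tested: cells in 96-well plates exposed to compound for 48 hours at five concentrations. GI50 = concentration required for 50% inhibition of growth. TGI marks complete inhibition of growth.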
How the values were obtained:
Test in all cases: inhibition of tumour cell growth, NCI panel, 48 h
CAKI-1 renal = test system: CAKI-1 renal
HCT-15 colon = test system: HCT-15 colon
IGROV1 ovarian = test system: IGROV1 ovarian
LOX IMVI melanoma = test system: LOX IMVI melanoma
MDA-MB-435 = test system: MDA-MB-435
NCI-H460 lung = test system: NCI-H460 lung
SNB-19 CNS = test system: SNB-19 CNS
SW-620 colon = test system: SW-620 colon
SN12C renal = test system: SN12C renal
U251 CNS = test system: U251 CNS

CCOC(=O)c1c(Cl)c2c(n1Cc1ccccc1)-c1oncc1CCC2
GI50 (CAKI-1 renal): 3.51 µM | TGI (CAKI-1 renal): > 100 µM | GI50 (HCT-15 colon): 3.39 µM | TGI (HCT-15 colon): > 100 µM | GI50 (IGROV1 ovarian): 4.39 µM | TGI (IGROV1 ovarian): > 100 µM | GI50 (LOX IMVI melanoma): 5.26 µM | TGI (LOX IMVI melanoma): > 100 µM | GI50 (MDA-MB-435): 1400 nM | TGI (MDA-MB-435): 4.92 µM | GI50 (NCI-H460 lung): 3.62 µM | TGI (NCI-H460 lung): > 100 µM | GI50 (SNB-19 CNS): > 100 µM | TGI (SNB-19 CNS): > 100 µM | GI50 (SW-620 colon): 3.81 µM | TGI (SW-620 colon): > 100 µM

Nc1nccc(NCC2(CO)CC(CCc3ccccc3)C2)n1 (stereo not drawn)
TGI (CAKI-1 renal): 28.6 µM | TGI (HCT-15 colon): 36.1 µM | TGI (IGROV1 ovarian): 33.3 µM | TGI (LOX IMVI melanoma): 34.4 µM | TGI (MDA-MB-435): 28.7 µM | TGI (NCI-H460 lung): 28.4 µM | TGI (SN12C renal): 60.2 µM | TGI (SW-620 colon): 43.7 µM | TGI (U251 CNS): 28.7 µM

COC(=O)[C@@H]1Cc2ccc(OC)c(c2)OCCC(=O)N1
TGI (CAKI-1 renal): > 100 µM | TGI (HCT-15 colon): > 100 µM | TGI (IGROV1 ovarian): > 100 µM | TGI (MDA-MB-435): > 100 µM | TGI (SNB-19 CNS): > 100 µM | TGI (SW-620 colon): > 100 µM | TGI (U251 CNS): > 100 µM

O=S1(=O)C(=C(c2ccccc2)c2ccccc2)S(=O)(=O)c2ccccc21
TGI (CAKI-1 renal): > 100 µM | TGI (HCT-15 colon): > 100 µM | TGI (IGROV1 ovarian): > 100 µM | TGI (LOX IMVI melanoma): > 100 µM | TGI (NCI-H460 lung): > 100 µM | TGI (SN12C renal): > 100 µM | TGI (SNB-19 CNS): > 100 µM | TGI (SW-620 colon): > 100 µM | TGI (U251 CNS): > 100 µM

NC(Cc1cc(I)c(Oc2ccc(O)c(I)c2)c(I)c1)C(=O)O (stereo not drawn)
TGI (CAKI-1 renal): > 100 µM | TGI (HCT-15 colon): > 100 µM | TGI (IGROV1 ovarian): > 100 µM | TGI (LOX IMVI melanoma): > 100 µM | TGI (MDA-MB-435): > 100 µM | TGI (SN12C renal): > 100 µM | TGI (SNB-19 CNS): > 100 µM | TGI (SW-620 colon): > 100 µM | TGI (U251 CNS): > 100 µM

O=C(O)c1ccccc1/C=C1\Cc2cc3c(cc2C1=O)CCC3
TGI (HCT-15 colon): 74.8 µM | TGI (IGROV1 ovarian): > 100 µM | TGI (LOX IMVI melanoma): 31.4 µM | TGI (MDA-MB-435): 51.5 µM | TGI (NCI-H460 lung): 81.9 µM | TGI (SN12C renal): 56.8 µM | TGI (SNB-19 CNS): > 100 µM | TGI (SW-620 colon): 60.4 µM | TGI (U251 CNS): 94.3 µM

CN(CC(=O)Nc1ccccc1C(=O)O)c1ccccc1
TGI (CAKI-1 renal): > 100 µM | TGI (HCT-15 colon): > 100 µM | TGI (IGROV1 ovarian): > 100 µM | TGI (LOX IMVI melanoma): > 100 µM | TGI (NCI-H460 lung): > 100 µM | TGI (SN12C renal): > 100 µM | TGI (SNB-19 CNS): > 100 µM | TGI (SW-620 colon): > 100 µM | TGI (U251 CNS): > 100 µM

COC(=O)C(C)NP(=O)(OCc1cccc(Cn2cnc3c(N)ncnc32)c1)Oc1ccccc1 (stereo not drawn)
GI50 (CAKI-1 renal): > 100 µM | TGI (CAKI-1 renal): > 100 µM | GI50 (HCT-15 colon): > 100 µM | TGI (HCT-15 colon): > 100 µM | GI50 (IGROV1 ovarian): > 100 µM | TGI (IGROV1 ovarian): > 100 µM | GI50 (LOX IMVI melanoma): 48.9 µM | TGI (LOX IMVI melanoma): > 100 µM | GI50 (MDA-MB-435): > 100000 nM | TGI (MDA-MB-435): > 100 µM | GI50 (NCI-H460 lung): > 100 µM | TGI (NCI-H460 lung): > 100 µM | GI50 (SN12C renal): > 100 µM | TGI (SN12C renal): > 100 µM | GI50 (SW-620 colon): > 100 µM | TGI (SW-620 colon): > 100 µM | GI50 (U251 CNS): > 100 µM | TGI (U251 CNS): > 100 µM

CCN(CC)c1ccc(Cl)c2c1C(O)(C(C)C)C2(C)C (stereo not drawn)
TGI (CAKI-1 renal): 34.2 µM | TGI (HCT-15 colon): 44.9 µM | TGI (IGROV1 ovarian): 27.8 µM | TGI (LOX IMVI melanoma): 35.1 µM | TGI (NCI-H460 lung): 33.9 µM | TGI (SN12C renal): 30.5 µM | TGI (SNB-19 CNS): 28.7 µM | TGI (SW-620 colon): 32.6 µM | TGI (U251 CNS): 30.5 µM

Cc1nn(C(=O)Cc2ccccc2)c2c1C(c1ccc(/C=C/c3ccccc3)cc1)SC(N)=N2 (stereo not drawn)
TGI (CAKI-1 renal): > 100 µM | TGI (HCT-15 colon): > 100 µM | TGI (IGROV1 ovarian): > 100 µM | TGI (LOX IMVI melanoma): > 100 µM | TGI (MDA-MB-435): > 100 µM | TGI (NCI-H460 lung): > 100 µM | TGI (SN12C renal): > 100 µM | TGI (SNB-19 CNS): > 100 µM | TGI (SW-620 colon): > 100 µM

CC(=O)Nc1ccc2c(c1)C(=O)c1ccccc1-2
TGI (HCT-15 colon): > 100 µM | TGI (IGROV1 ovarian): > 100 µM | TGI (LOX IMVI melanoma): > 100 µM | TGI (NCI-H460 lung): > 100 µM | TGI (SN12C renal): > 100 µM | TGI (SNB-19 CNS): > 100 µM | TGI (SW-620 colon): > 100 µM | TGI (U251 CNS): > 100 µM

N#CCC(=O)N/N=C\C(O)C(O)C(O)C(O)CO (stereo not drawn)
TGI (CAKI-1 renal): > 100 µM | TGI (HCT-15 colon): > 100 µM | TGI (IGROV1 ovarian): > 100 µM | TGI (LOX IMVI melanoma): > 100 µM | TGI (MDA-MB-435): > 100 µM | TGI (NCI-H460 lung): > 100 µM | TGI (SN12C renal): > 100 µM | TGI (SNB-19 CNS): > 100 µM | TGI (SW-620 colon): > 100 µM

Cc1csc(=Nc2ccccc2)n1CCC(O)(P(=O)(O)O)P(=O)(O)O
TGI (CAKI-1 renal): > 100 µM | TGI (HCT-15 colon): > 100 µM | TGI (IGROV1 ovarian): > 100 µM | TGI (LOX IMVI melanoma): > 100 µM | TGI (NCI-H460 lung): > 100 µM | TGI (SNB-19 CNS): > 100 µM

CC(C)(C)OC(=O)CC(NC(=O)OCc1ccccc1)NC(=O)OC(C)(C)C (stereo not drawn)
GI50 (HCT-15 colon): 56 µg/mL | GI50 (LOX IMVI melanoma): 71.2 µg/mL | GI50 (MDA-MB-435): 87.9 µg/mL | GI50 (NCI-H460 lung): 39.8 µg/mL | GI50 (SN12C renal): 51.9 µg/mL | GI50 (SNB-19 CNS): 76.2 µg/mL | GI50 (U251 CNS): 67.5 µg/mL

O=c1c2sc3ccccc3sc=2c(=O)c2c(Cl)c(Cl)c(Cl)c(Cl)c12
TGI (CAKI-1 renal): > 100 µM | TGI (HCT-15 colon): > 100 µM | TGI (IGROV1 ovarian): > 100 µM | TGI (MDA-MB-435): > 100 µM | TGI (NCI-H460 lung): > 100 µM | TGI (SN12C renal): > 100 µM | TGI (SNB-19 CNS): > 100 µM | TGI (SW-620 colon): > 100 µM | TGI (U251 CNS): > 100 µM

CC1C(OS(=O)(=O)c2ccc3[nH]c(=S)sc3c2)CC2C3(C)CCC2(C(C)C(=O)O)C(O)C13 (stereo not drawn)
TGI (CAKI-1 renal): 64.3 µM | TGI (HCT-15 colon): 27.1 µM | TGI (IGROV1 ovarian): 35.8 µM | TGI (MDA-MB-435): 47.8 µM | TGI (NCI-H460 lung): > 100 µM | TGI (SN12C renal): > 100 µM | TGI (SNB-19 CNS): > 100 µM | TGI (U251 CNS): 38.6 µM

O=C(c1c(F)c(F)c(F)c(F)c1F)n1c(=S)n(C(=O)c2c(F)c(F)c(F)c(F)c2F)c2ccccc21
TGI (HCT-15 colon): > 100 µM | TGI (IGROV1 ovarian): > 100 µM | TGI (LOX IMVI melanoma): > 100 µM | TGI (NCI-H460 lung): > 100 µM | TGI (SN12C renal): > 100 µM | TGI (SNB-19 CNS): > 100 µM | TGI (SW-620 colon): > 100 µM | TGI (U251 CNS): > 100 µM

Cc1cc2nnn(C3CCCCO3)c2cc1C (stereo not drawn)
TGI (CAKI-1 renal): > 100 µM | TGI (HCT-15 colon): > 100 µM | TGI (IGROV1 ovarian): > 100 µM | TGI (MDA-MB-435): > 100 µM | TGI (NCI-H460 lung): > 100 µM | TGI (SN12C renal): > 100 µM | TGI (SNB-19 CNS): > 100 µM | TGI (U251 CNS): > 100 µM

NS(=O)(=O)c1c(O)c2ccccc2oc1=O
TGI (CAKI-1 renal): > 100 µM | TGI (IGROV1 ovarian): > 100 µM | TGI (LOX IMVI melanoma): > 100 µM | TGI (MDA-MB-435): > 100 µM | TGI (NCI-H460 lung): > 100 µM | TGI (SN12C renal): > 100 µM | TGI (SNB-19 CNS): > 100 µM | TGI (SW-620 colon): > 100 µM | TGI (U251 CNS): > 100 µM

COc1cc(Nc2nc3cc(C)ccc3nc2-c2ccccc2)cc(OC)c1OC
TGI (CAKI-1 renal): > 100 µM | TGI (HCT-15 colon): 48.7 µM | TGI (IGROV1 ovarian): > 100 µM | TGI (LOX IMVI melanoma): > 100 µM | TGI (NCI-H460 lung): 40 µM | TGI (SN12C renal): > 100 µM | TGI (SNB-19 CNS): > 100 µM | TGI (SW-620 colon): > 100 µM | TGI (U251 CNS): > 100 µM

C(=NC12CC3CC(CC(C3)C1)C2)C1CCCCC1
TGI (CAKI-1 renal): > 100 µM | TGI (HCT-15 colon): > 100 µM | TGI (IGROV1 ovarian): > 100 µM | TGI (MDA-MB-435): > 100 µM | TGI (NCI-H460 lung): > 100 µM | TGI (SN12C renal): > 100 µM | TGI (SNB-19 CNS): > 100 µM | TGI (SW-620 colon): > 100 µM | TGI (U251 CNS): > 100 µM

O[C@@H]1[C@H](OC2c3ccccc3-c3ccccc32)[C@H](OCc2ccccc2)[C@@H]2OC[C@H]1O2
TGI (CAKI-1 renal): > 100 µM | TGI (HCT-15 colon): > 100 µM | TGI (IGROV1 ovarian): > 100 µM | TGI (LOX IMVI melanoma): > 100 µM | TGI (MDA-MB-435): > 100 µM | TGI (SN12C renal): > 100 µM | TGI (SNB-19 CNS): > 100 µM | TGI (SW-620 colon): > 100 µM | TGI (U251 CNS): > 100 µM
